The conditions of data set [1]: cited from earlier work.
The next data set relates to Fusarium oxysporum. The note with it: 0.35 mg EDTA per mL, Mueller-Hinton, in vitro. Here is the method:
(§1) These figures are discussed elsewhere in the Detailed Description section. A spectrophotometer was used at a frequency of 660 nm to measure the absorbency of the solution.
(§2) For molds, all inocula were started at 1×10^4 conidia/mL. For yeast and bacteria, all inocula were started at 1×10^6 cfu/mL. The medium used was Mueller-Hinton.
(§3) The concentration of chelator in these studies was 0.35 mg EDTA per mL water.

A further data set deals with Candida krusei. The note with it: 0.35 mg EDTA per mL, in vitro. Here is the method: as §1, §2, §3
For the next data set, the system named is Aspergillus flavus. The note with it: 0.35 mg EDTA per mL, in vitro. Here is the method:
as §1, §2, §3

Another data set concerns Aspergillus terreus. The note with it: 0.35 mg EDTA per mL, Mueller-Hinton, in vitro. Here is the method:
as §1, §2, §3

For the compound `C[C@@H]1[C@H](O)[C@@H](C)/C=C/C=C/C=C/C=C/C=C/C=C/C=C/[C@H](O[C@@H]2O[C@H](C)[C@@H](O)[C@H](N)[C@@H]2O)C[C@@H]2O[C@](O)(C[C@@H](O)C[C@@H](O)[C@H](O)CC[C@@H](O)C[C@@H](O)CC(=O)O[C@H]1C)C[C@H](O)[C@H]2C(=O)O` [Amphotericin B], in data set [1], the “solubility in aqueous solution” value is on record as “not soluble”.

Consider `O=C(O)CN(CCN(CC(=O)O)CC(=O)O)CC(=O)O` [EDTA, Ethylenediamine-N,N,N′,N′,-tetraacetic acid], for which the “inhibitory effect on growth” value in the data set with Fusarium oxysporum, with Candida krusei (Mueller-Hinton) and in the data set on Aspergillus terreus was “inhibitory effect” in each case. Also, the “time after contact at which the inhibitory effect is noticeable” value in the data set with Candida krusei is “only a few hours”. Besides, the “inhibitory effect on growth relative to the control population” value with Aspergillus flavus (Mueller-Hinton) was “inhibitory effect”. Also, the “time after application from which the inhibitory effect is most clearly noticeable” value in the data set on Aspergillus flavus was 12 h.
